Laboratory results: patent publication US20230210819A1, “USE OF BENZISOSELAZOLE DERIVATIVE FOR ANTI-CORONAVIRUS AND CONTROL OF INTERSTITIAL LUNG DISEASE (ILD) RELATED TO CORONAVIRUS” (SHANGHAI YUANXI MEDICINE CORP., priority 2020, published 2023)

Legend:
[1] = test system: cytokines in bronchoalveolar lavage fluid; test: Inflammatory factor assay of bronchoalveolar lavage fluid by ELISA; format: in vivo, C57 mice
Procedure: (§1) Animals of 7-d modeling were randomly divided into 7 groups according to the table below, 6 animals per control group and 12 animals per test group.
(§2) Drug administration began 24 h or 7 d after modeling. […] The day of the first administration was counted as D1, the next day as D2, and so forth. The normal groups and Model groups were given 200 µL of normal saline daily by gavage administration.
After the mouse was fixed, its trachea and chest cavity were exposed, and the trachea and the esophagus were bluntly separated with an ophthalmic curved forceps. Two sutures were made between the trachea and the esophagus. An intravenous trocar was inserted into the trachea and ligated at the site where it entered the trachea and at its distal end. A 1 mL syringe was connected to draw in 1 mL of pre-cooled PBS and infuse it into the lung tissue. Significant filling in the lung could be seen with the naked eye. The infusion was stopped for 10 s and withdrawal was performed. The infusion/withdrawal cycle was repeated 3 times. The withdrawn BALF was transferred to a clean EP tube and centrifuged at 4° C., and the supernatant was collected and preserved at -80° C. The bronchoalveolar lavage fluid was assayed for inflammatory factors by ELISA.

[2] = test system: bleomycin-induced mouse lung disease model; test: Lung HE pathological analysis (Ashcroft score), 7-d modeling; format: in vivo, C57 mice; settings: for HE score (pulmonary fibrosis, Ashcroft): 18 fields of view
Procedure: as §1, §2
1. […] Specifically, a mold was prepared first, and then the tissue was laid flat at the bottom of the mold; after the section face was arranged facedown, the embedding box cover was put on the mold; molten wax was poured into the mold until it overflowed the mold, and then the mold was gently lifted up and laid flat in a freezing platform; after being rapidly cooled and frozen for about 10 min, the mold was took out. • 6) Sectioning method
2. HE staining • 1) A flat section was selected for HE staining. • 2) The section was dewaxed in xylene I for 20 min. • 3) The section was dewaxed in xylene II for 20 min. • 4) The section was soaked in absolute ethanol for 10 min. • 5) Stepwise rehydrating, in absolute ethanol for 5 min, in 90% ethanol for 5 min, in 80% ethanol for 5 min, and in […] for 5 min; and a water wash. • 6) Staining with hematoxylin for 3-5 min. A water wash. • 7) Differentiating with 1% HCl-[…] for 5-10 s. A water wash, and bluing. • 8) Staining with eosin for 30-60 s. A water wash. • 9) Washing with 80% ethanol for 3-5 s, with 95% ethanol for 3-5 s, and with absolute ethanol for 3-5 s. • 10) Coverslipping with neutral resin, observing under a microscope, and photographing.
HE sectioning: 3 sections were consecutively made; flat sections of complete tissue were selected for HE staining; each of the sections was photographed in 3 randomly selected fields of view at 200x magnification. The obtained images were scored.
The general standard Ashcroft scoring method for pulmonary fibrosis tissues was adopted in HE scoring. The HE pathological analysis is an outcome evaluation for irreversible pulmonary fibrosis that develops in interstitial lung disease models.
For 6 animals from each of the 7-d modeling groups, a total of 18 HE fields of view were scored.

[3] = BSL: BS 36 mg/kg gavage daily, second half of table, head taken from the 24th table
[4] = BSM: BS 90 mg/kg gavage daily, negative = increase
[5] = BSM: BS 90 mg/kg gavage daily, second half of table, head taken from the 24th table
[6] = 7-d modeling, BSH: BS 180 mg/kg gavage daily
[7] = 7-d modeling, BSL: BS 36 mg/kg gavage daily
[8] = 7-d modeling, BSM: BS 90 mg/kg gavage daily

## O=c1c2ccccc2[se]n1CCCCn1[se]c2ccccc2c1=O [BS, 1,4-[bis(1,2-benzisoselenazol-3(2H)-one)]butane]
[1]; [3]
  IL-2 in bronchoalveolar lavage fluid: 43.46 ± 7.51 pg/mL
  IL-6 in bronchoalveolar lavage fluid: 14.41 ± 1.33 pg/mL
  TNF-α in bronchoalveolar lavage fluid: 51.98 ± 4.37 pg/mL
[1]; BSM: BS 90 mg/kg gavage daily
  IFN-γ in bronchoalveolar lavage fluid: 53.31 ± 5.29 pg/mL
  NF-κB in bronchoalveolar lavage fluid: 824.16 ± 155.14 pg/mL
  Percent reduction in IL-1β in bronchoalveolar lavage fluid with respect to the Model group: 47.93%
  Percent reduction in IL-2 in bronchoalveolar lavage fluid with respect to the Model group: 9.81%
  Percent reduction in IL-6 in bronchoalveolar lavage fluid with respect to the Model group: 54.37%
  Percent reduction in NF-κB in bronchoalveolar lavage fluid with respect to the Model group: 10.15%
  Percent reduction in TGF-β in bronchoalveolar lavage fluid with respect to the Model group: 2.87%
  Percent reduction in TNF-α in bronchoalveolar lavage fluid with respect to the Model group: 11.68%
  TGF-β in bronchoalveolar lavage fluid: 178.54 ± 14.64 pg/mL
[1]; [4]
  Percent reduction in IFN-γ in bronchoalveolar lavage fluid with respect to the Model group: -60.63%
  Percent reduction in PPAR-y in bronchoalveolar lavage fluid with respect to the Model group: -6.09%
[1]; [5]
  IL-1β in bronchoalveolar lavage fluid: 6.50 ± 1.38 pg/mL
  IL-2 in bronchoalveolar lavage fluid: 40.84 ± 3.88 pg/mL
  IL-6 in bronchoalveolar lavage fluid: 13.13 ± 1.03 pg/mL
  TNF-α in bronchoalveolar lavage fluid: 49.57 ± 5.97 pg/mL
[2]; 7-d model, formation stage, BSL (36 mg/kg), BSM (90 mg/kg) and BSH (180 mg/kg)
  Effect on lung tissue structure, HE (in words): significantly reduce structural changes in lung tissues
[2]; 7-d model, BSH, 180 mg/kg
  Effect against ECM deposition (in words): significant synergetic effect against ECM deposition
[2]; 7-d modeling, BSH: BS 180 mg/kg
  Clear lung tissue damage or pathological tissue change, in words: did not show clear lung tissue damage or pathological tissue change
[2]; [6]
  HE score and benefit rate, ≥4 points (fields/total); pathological tissue change: 0/18
  HE score and benefit rate, ≥4 points (percent of fields); probability of pathological tissue change: 0%
  HE score and benefit rate, ≥5 points (fields/total); clear lung tissue damage: 0/18
  HE score and benefit rate, ≥5 points (percent of fields); probability of clear lung tissue damage: 0%
  HE score and benefit rate, ≥6 points (fields/total): 0/18
  HE score and benefit rate, ≥6 points (percent of fields): 0%
  Lung HE histology description: substantially complete lung tissue structures
  HE score (pulmonary fibrosis, Ashcroft): 1.48 ± 0.78
[2]; [7]
  HE score and benefit rate, ≥4 points (fields/total); pathological tissue change: 15/18
  HE score and benefit rate, ≥4 points (percent of fields); probability of pathological tissue change: 83.3%
  HE score and benefit rate, ≥5 points (fields/total); clear lung tissue damage: 6/18
  HE score and benefit rate, ≥5 points (percent of fields); probability of clear lung tissue damage: 33.3%
  HE score and benefit rate, ≥6 points (fields/total): 1/18
  HE score and benefit rate, ≥6 points (percent of fields): 5.6%
  Lung HE histology description: relatively better lung structures than the Model group
  HE score (pulmonary fibrosis, Ashcroft): 4.28 ± 0.83
[2]; [8]
  HE score and benefit rate, ≥4 points (fields/total); pathological tissue change: 5/18
  HE score and benefit rate, ≥4 points (percent of fields); probability of pathological tissue change: 27.8%
  HE score and benefit rate, ≥5 points (fields/total); clear lung tissue damage: 1/18
  HE score and benefit rate, ≥5 points (percent of fields); probability of clear lung tissue damage: 5.6%
  HE score and benefit rate, ≥6 points (fields/total): 0/18
  HE score and benefit rate, ≥6 points (percent of fields): 0%
  Lung HE histology description: much better lung structures than the Model group
  HE score (pulmonary fibrosis, Ashcroft): 3.00 ± 0.84
